Experimental data reported in US20020137929A1, “1 - (3-heterocyclylphenyl) isothiourea, -isourea, -guanidine and -amidine herbicidal agents” (Intellectual Property Department, BASF Aktiengesellschaft, priority 1998, published 2002).

Tests used:
[1] = tested on: ABUTH (Velvetleaf); assay: Postemergence herbicidal evaluation; format: in vivo, Abutilon theophrasti; conditions: postemergence
Procedure, shortened: (§1)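 Each compound, dispersed in an acetone/water mix (50/50) carrying 0.5% TWEEN 20, is nozzle-sprayed at 40 psi on approximately two-week-old seedlings at about 0.0156–0.500 kg/ha. Plants are assessed 4–5 weeks afterward on a 0–9 scale relative to control; duplicate tests are averaged.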

[2] = tested on: AMBEL (Ragweed, Common); assay: Postemergence herbicidal evaluation; format: in vivo, Ambrosia artemisifolia; conditions: postemergence
Procedure, shortened: as §1

[3] = tested on: CHEAL (Lambsquarters, Common); assay: Postemergence herbicidal evaluation; format: in vivo, Chenopodium album; conditions: postemergence
Procedure, shortened: as §1

[4] = tested on: ECHCG (Barnyardgrass); assay: Postemergence herbicidal evaluation; format: in vivo, Echinochloa crus-galli; conditions: postemergence
Procedure, shortened: as §1

[5] = tested on: GLXMAW (Soybean, Williams); assay: Postemergence herbicidal evaluation; format: in vivo, Glycine max, (L.) Merr. cv Williams; conditions: postemergence
Procedure, shortened: as §1

[6] = tested on: ORYSAT (Rice, Tebonnet); assay: Postemergence herbicidal evaluation; format: in vivo, Oryza sativa, (L.) Tebonnet; conditions: postemergence
Procedure, shortened: as §1

[7] = tested on: ZEAMX (Corn, Field); assay: Postemergence herbicidal evaluation; format: in vivo, Zea mays; conditions: postemergence
Procedure, shortened: as §1

[8] = tested on: AMBEL (Ragweed, Common); assay: Preemergence herbicidal evaluation; format: in vivo, Ambrosia artemisifolia; conditions: rated 4-5 weeks after treatment
Procedure, shortened: (§2)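 Seeds were mixed with potting soil and planted on about one inch of soil, then sprayed with test compound in aqueous acetone at about 0.0156 to 0.500 kg per hectare. Plants grew under standard greenhouse care and were visually rated 0-9 against untreated controls 4-5 weeks post-treatment.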

[9] = tested on: CASOB (Sicklepod); assay: Preemergence herbicidal evaluation; format: in vivo, Cassia obtusifolia; conditions: rated 4-5 weeks after treatment
Procedure, shortened: as §2

[10] = tested on: CHEAL (Lambsquarters, Common); assay: Preemergence herbicidal evaluation; format: in vivo, Chenopodium album; conditions: rated 4-5 weeks after treatment
Procedure, shortened: as §2

[11] = tested on: GALAP (Galium); assay: Preemergence herbicidal evaluation; format: in vivo, Galium aparine; conditions: rated 4-5 weeks after treatment
Procedure, shortened: as §2

[12] = tested on: CYPSE (Flatsedge); assay: Preemergence weed control under flooded paddy conditions; format: in vivo, Cyperus serotinus; conditions: rated 3-4 weeks after treatment
Procedure, shortened: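 Visual injury scored 0-9 against control three to four weeks post-treatment, greenhouse-grown. Application: acetone/water (50/50) solutions dosed directly into flood water (1.5-3 cm over silt loam, planted top 0.5 cm), roughly 0.0313 to 0.500 kg/ha active ingredient.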

CC(C)N1C(=O)CSC1=Nc1cc(-n2c(=O)cc(C(F)(F)F)n(C)c2=O)c(F)cc1Cl [Compound 164, 3-{4-Chloro-2-fluoro-5-[(3-isopropyl-4-oxo-2-thiazolidinylidene)amino]phenyl}-1-methyl-6-(trifluoromethyl)-2,4(1H,3H)-pyrimidinedione]
Herbicidal rating ABUTH ([1]; rate 0.0156 kg/ha): 9.0
Herbicidal rating ABUTH ([1]; rate 0.0313 kg/ha): 9.0
Herbicidal rating ABUTH ([1]; rate 0.0625 kg/ha): 9.0
Herbicidal rating ABUTH ([1]; rate 0.1250 kg/ha): 9.0
Herbicidal rating AMBEL ([2]; rate 0.0156 kg/ha): 7.0
Herbicidal rating AMBEL ([2]; rate 0.0313 kg/ha): 9.0
Herbicidal rating AMBEL ([2]; rate 0.0625 kg/ha): 9.0
Herbicidal rating AMBEL ([2]; rate 0.1250 kg/ha): 9.0
Herbicidal rating CHEAL ([3]; rate 0.0156 kg/ha): 9.0
Herbicidal rating CHEAL ([3]; rate 0.0313 kg/ha): 9.0
Herbicidal rating CHEAL ([3]; rate 0.0625 kg/ha): 9.0
Herbicidal rating CHEAL ([3]; rate 0.1250 kg/ha): 9.0
Herbicidal rating ECHCG ([4]; rate 0.0156 kg/ha): 2.0
Herbicidal rating ECHCG ([4]; rate 0.0313 kg/ha): 3.0
Herbicidal rating ECHCG ([4]; rate 0.0625 kg/ha): 3.0
Herbicidal rating ECHCG ([4]; rate 0.1250 kg/ha): 3.0
Herbicidal rating GLXMAW ([5]; rate 0.0156 kg/ha): 6.0
Herbicidal rating GLXMAW ([5]; rate 0.0313 kg/ha): 6.0
Herbicidal rating GLXMAW ([5]; rate 0.0625 kg/ha): 7.0
Herbicidal rating GLXMAW ([5]; rate 0.1250 kg/ha): 7.5
Herbicidal rating ORYSAT ([6]; rate 0.0156 kg/ha): 2.5
Herbicidal rating ORYSAT ([6]; rate 0.0313 kg/ha): 4.0
Herbicidal rating ORYSAT ([6]; rate 0.0625 kg/ha): 5.0
Herbicidal rating ORYSAT ([6]; rate 0.1250 kg/ha): 5.0
Herbicidal rating ZEAMX ([7]; rate 0.0156 kg/ha): 5.0
Herbicidal rating ZEAMX ([7]; rate 0.0313 kg/ha): 5.0
Herbicidal rating ZEAMX ([7]; rate 0.0625 kg/ha): 5.5
Herbicidal rating ZEAMX ([7]; rate 0.1250 kg/ha): 6.5
Preemergence herbicidal rating AMBEL ([8]; 0.0156 kg/ha): 6.0
Preemergence herbicidal rating AMBEL ([8]; 0.0313 kg/ha): 7.0
Preemergence herbicidal rating AMBEL ([8]; 0.0625 kg/ha): 7.0
Preemergence herbicidal rating AMBEL ([8]; 0.1250 kg/ha): 7.0
Preemergence herbicidal rating AMBEL ([8]; 0.2500 kg/ha): 9.0
Preemergence herbicidal rating AMBEL ([8]; 0.5000 kg/ha): 9.0
Preemergence herbicidal rating CASOB ([9]; 0.0156 kg/ha): 1.0
Preemergence herbicidal rating CASOB ([9]; 0.0313 kg/ha): 0.0
Preemergence herbicidal rating CASOB ([9]; 0.0625 kg/ha): 7.0
Preemergence herbicidal rating CASOB ([9]; 0.1250 kg/ha): 7.0
Preemergence herbicidal rating CASOB ([9]; 0.2500 kg/ha): 9.0
Preemergence herbicidal rating CASOB ([9]; 0.5000 kg/ha): 5.0
Preemergence herbicidal rating CHEAL ([10]; 0.0156 kg/ha): 9.0
Preemergence herbicidal rating CHEAL ([10]; 0.0313 kg/ha): 9.0
Preemergence herbicidal rating CHEAL ([10]; 0.0625 kg/ha): 9.0
Preemergence herbicidal rating CHEAL ([10]; 0.1250 kg/ha): 9.0
Preemergence herbicidal rating CHEAL ([10]; 0.2500 kg/ha): 9.0
Preemergence herbicidal rating CHEAL ([10]; 0.5000 kg/ha): 9.0
Preemergence herbicidal rating GALAP ([11]; 0.0156 kg/ha): 3.0
Preemergence herbicidal rating GALAP ([11]; 0.0313 kg/ha): 4.0
Preemergence herbicidal rating GALAP ([11]; 0.0625 kg/ha): 4.0
Preemergence herbicidal rating GALAP ([11]; 0.1250 kg/ha): 9.0
Preemergence herbicidal rating GALAP ([11]; 0.2500 kg/ha): 7.0
Preemergence herbicidal rating GALAP ([11]; 0.5000 kg/ha): 9.0
herbicidal effect rating, CYPSE ([12]; 0.0313 kg/ha): 0.0
herbicidal effect rating, CYPSE ([12]; 0.0625 kg/ha): 0.0
herbicidal effect rating, CYPSE ([12]; 0.1250 kg/ha): 3.0
herbicidal effect rating, CYPSE ([12]; 0.2500 kg/ha): 7.0
